Data on 34 compounds can be found in patent US11053230B2, “3-hydroxy-imidazolidin-4-one compounds as inhibitors of indoleamine 2,3-dioxygenase” (Netherlands Translational Research Center B.V., priority 2017, dated 2021).

Values joined by “and” are separate entries in the source; they are usually repeats but may differ in a detail not shown here. Equal values may be shown once.

This test concerns the target T1, IDO1 (Homo sapiens, UniProt P14902).
T1 construct: Recombinant full-length IDO1 (Seegers, N., et al.) and all other assay components were diluted in IDO1 reaction buffer; made in house
In words: Biochemical IDO1 assay (NFK GreenScreen). The conditions noted are these: for IC50: NFK GreenScreen, 25 nM IDO1, 100 μM L-tryptophan, read-out: IC50, inhibitory potency on IDO1; for relative activity of the separated isomers: stated in the synthesis examples, assay not named. The procedure: Inhibition of IDO1 activity can be measured by determining the enzymatic conversion of L-tryptophan into N-formylkynurenine (NFK) in a reaction mixture containing IDO1 and test compound. The formation of NFK can be detected directly by, for instance, high-performance liquid chromatography (HPLC) methods, or by intrinsic fluorescence.
Compounds were serially diluted in dimethylsulfoxide (DMSO) and finally in IDO1 reaction buffer, consisting of 50 mM NaH2PO4, pH7.0, supplemented with 0.05% Tween-20 (cat. No. P7949; Sigma Aldrich) and 1% glycerol. Recombinant full-length IDO1 (Seegers, N., et al.) and all other assay components were diluted in IDO1 reaction buffer. […] Subsequently, 10 μl of 0.4 mM of the substrate L-tryptophan was added, i.e., the final concentration of L-tryptophan was 100 μM. The DMSO concentration in the assay was 0.3%. […] Incubation was continued for 60 min at room temperature. Then, 10 μl of NFK Green™ (NTRC, Oss, The Netherlands) was added, the plate was sealed, and the reaction was developed for 3 hours at 37° C. To determine the production of N-formyl kynurenine (NFK), the seal was removed and fluorescence was read on an EnVision multimode reader (Perkin Elmer, Waltham, Mass., USA). IC50 were calculated using XLfit™ software (ID Business Solutions, Ltd., Surrey, U.K.).

T1 sequence (P14902 whole entry): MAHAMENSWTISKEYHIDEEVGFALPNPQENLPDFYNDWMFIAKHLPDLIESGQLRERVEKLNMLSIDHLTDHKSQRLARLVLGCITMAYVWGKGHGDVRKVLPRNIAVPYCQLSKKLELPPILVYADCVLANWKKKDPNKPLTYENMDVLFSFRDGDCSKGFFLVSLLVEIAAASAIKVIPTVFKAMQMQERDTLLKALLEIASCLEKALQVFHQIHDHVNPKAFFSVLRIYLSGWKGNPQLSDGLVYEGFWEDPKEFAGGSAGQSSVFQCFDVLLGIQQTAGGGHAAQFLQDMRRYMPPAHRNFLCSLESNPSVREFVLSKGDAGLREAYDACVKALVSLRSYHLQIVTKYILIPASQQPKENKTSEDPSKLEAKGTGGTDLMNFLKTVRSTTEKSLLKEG

Broadly, the IC50 is the concentration that gives 50% inhibition. As to `O=C1CN(C(=O)c2c(F)ccc(-c3cccc4ccccc34)c2F)C(c2cc(Br)cs2)N1O` (stereo not drawn) [Example 134, 2-(4-Bromo-2-thienyl)-1-[2,6-difluoro-3-(1-naphthyl)benzoyl]-3-hydroxy-imidazolidin-4-one], the IC50 was not above 1000 nM.
On to `NS(=O)(=O)NCCCc1cc(F)c(C(=O)N2CC(=O)N(O)C2c2cc(Br)cs2)c(F)c1` (stereo not drawn) [Example 93, 2-(4-Bromo-2-thienyl)-1-[2,6-difluoro-4-[3-(sulfamoylamino)propyl]benzoyl]-3-hydroxy-4-oxo-imidazolidine], for which the IC50 was not above 1000 nM.
On to `C[C@@H](c1ccccc1)N1CC(=O)N(O)C1c1cc(Br)cs1` (single isomer, unassigned) [Example 118a], for which the “relative activity of the separated isomers” value (“relative activity” below) is listed as “less active isomer”.
As for `Cc1ccccc1-c1ccc(F)c(C(=O)N2CC(=O)N(O)C2c2cc(Br)cs2)c1F` (stereo not drawn) [Example 133, 2-(4-Bromo-2-thienyl)-1-[2,6-difluoro-3-(o-tolyl)benzoyl]-3-hydroxy-imidazolidin-4-one], the IC50 was not above 1000 nM.
As to `C#Cc1csc(C2N(O)C(=O)CN2C(=O)c2ccccc2F)c1` (stereo not drawn) [Example 35, 2-(4-Ethynyl-2-thienyl)-1-(2-fluorobenzoyl)-3-hydroxy-imidazolidin-4-one], the IC50 is ≤ 5000 nM and 1000 to 5000 nM.
Still for that read-out and setting: then `O=C1CN(C(=O)c2c(F)cccc2F)C(c2cc(C3CC3)cs2)N1O` (stereo not drawn) [Example 109, 2-(4-Cyclopropyl-2-thienyl)-1-(2,6-difluorobenzoyl)-3-hydroxy-imidazolidin-4-one], with ≤ 5000 nM and 1000 to 5000 nM; and `O=C1CN(C(=O)c2c(F)cccc2C(F)(F)F)C(c2cc(Br)cs2)N1O` (stereo not drawn) [Example 11, 2-(4-Bromo-2-thienyl)-1-[2-fluoro-6-(trifluoromethyl)benzoyl]-3-hydroxy-imidazolidin-4-one], with ≤ 5000 nM and 1000 to 5000 nM; and `NS(=O)(=O)NCC#Cc1cc(F)c(C(=O)N2CC(=O)N(O)C2c2cc(Br)cs2)c(F)c1` (stereo not drawn) [Example 80, 2-(4-Bromo-2-thienyl)-1-[2,6-difluoro-4-[3-(sulfamoylamino)prop-1-ynyl]benzoyl]-3-hydroxy-4-oxo-imidazolidine], with not above 1000 nM.
On the same count and under the same terms, then `O=C1CN(C(=O)c2c(F)ccc(Br)c2F)C(c2csc(Br)c2)N1O` (stereo not drawn) [Example 101, 1-(3-Bromo-2,6-difluoro-benzoyl)-2-(5-bromo-3-thienyl)-3-hydroxy-imidazolidin-4-one], with not above 1000 nM.
On the same count and under the same terms, then `CC(C)(N)C#Cc1cc(F)c(C(=O)N2CC(=O)N(O)C2c2cc(Br)cs2)c(F)c1` (stereo not drawn) [Example 81, 1-[4-(3-Amino-3-methyl-but-1-ynyl)-2,6-difluoro-benzoyl]-2-(4-bromo-2-thienyl)-3-hydroxy-imidazolidin-4-one], with not above 1000 nM; and `Cc1cc(C2N(O)C(=O)CN2C(=O)c2c(F)cccc2F)sc1Cl` (stereo not drawn) [Example 112, 2-(5-Chloro-4-methyl-2-thienyl)-1-(2,6-difluorobenzoyl)-3-hydroxy-imidazolidin-4-one], with not above 1000 nM.
In the case of `O=C1CN(C(=O)c2c(F)cccc2F)C(c2cc(Br)cs2)N1O` (single isomer, unassigned) [Example 48a, 2-(4-Bromo-2-thienyl)-1-(2,6-difluorobenzoyl)-3-hydroxy-imidazolidin-4-one], the IC50 was not above 1000 nM and the “relative activity” value is listed as “less active isomer”.
Consider `O=C1CN(C(=O)c2c(F)ccc([N+](=O)[O-])c2F)C(c2cc(Br)cs2)N1O` (stereo not drawn) [Example 106, 2-(4-Bromo-2-thienyl)-1-(2,6-difluoro-3-nitro-benzoyl)-3-hydroxy-imidazolidin-4-one], for which the IC50 was not above 1000 nM.
The same measure, in the same setting: then `O=C1CN(Cc2ccccc2F)C(c2cc(Br)cs2)N1O` (stereo not drawn) [Example 43, 2-(4-Bromo-2-thienyl)-1-[(2-fluorophenyl)methyl]-3-hydroxy-imidazolidin-4-one], with not above 1000 nM.
Consider `C[C@@H](c1ccccc1)N1CC(=O)N(O)C1c1csc(Br)c1` (single isomer, unassigned) [Example 121a], for which the “relative activity” value is “less active isomer”.
On to `CCc1ccc(C2N(O)C(=O)CN2C(=O)c2c(F)cccc2F)s1` (stereo not drawn) [Example 18, 1-(2,6-Difluorobenzoyl)-2-(5-ethyl-2-thienyl)-3-hydroxy-imidazolidin-4-one], for which the IC50 is ≤ 5000 nM and 1000 to 5000 nM.
The same measure, in the same setting: then `COc1ccc(F)c(C(=O)N2CC(=O)N(O)C2c2csc(Br)c2)c1F` (stereo not drawn) [Example 104, 2-(5-Bromo-3-thienyl)-1-(2,6-difluoro-3-methoxy-benzoyl)-3-hydroxy-imidazolidin-4-one], with not above 1000 nM.
Regarding `N#Cc1cc(F)c(C(=O)N2CC(=O)N(O)C2c2cc(Br)cs2)c(F)c1` (stereo not drawn) [Example 117, 4-[2-(4-Bromo-2-thienyl)-3-hydroxy-4-oxo-imidazolidine-1-carbonyl]-3,5-difluoro-benzonitrile], the IC50 is not above 1000 nM.
As to `C[C@@H](c1ccccc1)N1CC(=O)N(O)C1c1cc(Br)cs1` (single isomer, unassigned) [Example 118b], the IC50 is not above 1000 nM and the “relative activity” value was “most active isomer”.
Take `O=C1CN(C(=O)c2c(F)cccc2F)C(c2ccc([N+](=O)[O-])s2)N1O` (stereo not drawn) [Example 16, 1-(2,6-Difluorobenzoyl)-3-hydroxy-2-(5-nitro-2-thienyl)imidazolidin-4-one]: the IC50 was ≤ 5000 nM and 1000 to 5000 nM.
For the compound `Cn1cc(-c2ccc(F)c(C(=O)N3CC(=O)N(O)C3c3cc(Br)cs3)c2F)cn1` (stereo not drawn) [Example 125, 2-(4-Bromo-2-thienyl)-1-[2,6-difluoro-3-(1-methylpyrazol-4-yl)benzoyl]-3-hydroxy-imidazolidin-4-one], the IC50 was not above 1000 nM.
As to `O=C1CN(Cc2c(F)cccc2F)C(c2cc(Br)cs2)N1O` (single isomer, unassigned) [Example 45b, 2-(4-Bromo-2-thienyl)-1-[(2,6-difluorophenyl)methyl]-3-hydroxy-imidazolidin-4-one], the IC50 was not above 1000 nM and the “relative activity” value is reported as “most active isomer”.
On to `O=C1CN(C(=O)c2c(F)cccc2F)C(c2csc([N+](=O)[O-])c2)N1O` (stereo not drawn) [Example 20, 1-(2,6-Difluorobenzoyl)-3-hydroxy-2-(5-nitro-3-thienyl)imidazolidin-4-one], for which the IC50 was not above 1000 nM.
On the same count and under the same terms, the same measure for `CC(C)C=Cc1cc(F)c(C(=O)N2CC(=O)N(O)C2c2cc(Br)cs2)c(F)c1` (stereo not drawn) [Example 94, 2-(4-Bromo-2-thienyl)-1-[2,6-difluoro-4-[3-methylbut-1-enyl]benzoyl]-3-hydroxy-imidazolidin-4-one]: not above 1000 nM.
For `O=C1CN(Cc2c(F)cccc2F)C(c2cc(Br)cs2)N1O` (single isomer, unassigned) [Example 45a, 2-(4-Bromo-2-thienyl)-1-[(2,6-difluorophenyl)methyl]-3-hydroxy-imidazolidin-4-one], the IC50 is ≤ 5000 nM and 1000 to 5000 nM; the “relative activity” value is “less active isomer”.
Take `C[C@@H](c1ccccc1)N1CC(=O)N(O)C1c1cc(I)cs1` (single isomer, unassigned) [Example 119a]: the “relative activity” value is on record as “less active isomer”.
Turning to `O=C1CN(C(=O)c2c(F)cc(C#CC3CC3)cc2F)C(c2cc(Br)cs2)N1O` (single isomer, unassigned) [Example 47a, 2-(4-Bromo-2-thienyl)-1-[4-(2-cyclopropylethynyl)-2,6-difluoro-benzoyl]-3-hydroxy-imidazolidin-4-one], the IC50 was not above 1000 nM and the “relative activity” value is listed as “less active isomer”.
In the case of `O=C1CN(C(=O)c2c(F)cccc2F)C(c2cc(Br)c(F)s2)N1O` (single isomer, unassigned) [Example 110b, 2-(4-Bromo-5-fluoro-2-thienyl)-1-(2,6-difluorobenzoyl)-3-hydroxy-imidazolidin-4-one], the “relative activity” value is “less active isomer”.
Consider `O=C1CN(C(=O)c2c(F)ccc(-c3ccccc3)c2F)C(c2csc(Br)c2)N1O` (stereo not drawn) [Example 123, 2-(5-Bromo-3-thienyl)-1-(2,6-difluoro-3-phenyl-benzoyl)-3-hydroxy-imidazolidin-4-one], for which the IC50 was not above 1000 nM.
Still for that read-out and setting: the same measure for `C=Cc1ccc(F)c(C(=O)N2CC(=O)N(O)C2c2cc(Br)cs2)c1F` (stereo not drawn) [Example 128, 2-(4-Bromo-2-thienyl)-1-(2,6-difluoro-3-vinyl-benzoyl)-3-hydroxy-imidazolidin-4-one]: not above 1000 nM; for `O=C1CN(C(=O)c2c(F)cccc2Cl)C(c2cc(Br)cs2)N1O` (stereo not drawn) [Example 7, 2-(4-Bromo-2-thienyl)-1-(2-chloro-6-fluoro-benzoyl)-3-hydroxy-imidazolidin-4-one]: not above 1000 nM; for `CS(=O)(=O)c1ccc(-c2ccc(C(=O)N3CC(=O)N(O)C3c3cc(Br)cs3)cc2)cc1` (stereo not drawn) [Example 71, 2-(4-Bromo-2-thienyl)-3-hydroxy-1-[4-(4-methylsulfonylphenyl)benzoyl]imidazolidin-4-one]: ≤ 5000 nM and 1000 to 5000 nM.
With `O=C1CN(C(=O)C2CCCCC2)C(c2cc(Br)cs2)N1O` (stereo not drawn) [Example 67, 2-(4-Bromo-2-thienyl)-1-(cyclohexanecarbonyl)-3-hydroxy-imidazolidin-4-one], the IC50 is ≤ 5000 nM and 1000 to 5000 nM.
Regarding `C[C@@H](c1ccccc1)N1CC(=O)N(O)C1c1ccc(Br)s1` (single isomer, unassigned) [Example 120a], the “relative activity” value is given as “less active isomer”.
